PubChem BioAssay (NCI)
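Step 1: Grow cells in 96-well plates. Step 2: Expose to compound for 48 hours at 5 concentrations. Step 3: Interpolate endpoints linearly; if unreached, use highest concentration. Definition used: TGI = concentration required for complete inhibition of growth.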

Key:
Assay in all cases: NCI-60 cell line screen, 48 h
A549 NSCLC = system: A549 NSCLC
ACHN renal = system: ACHN renal
HCC-2998 colon = system: HCC-2998 colon
HL-60(TB) leukemia = system: HL-60(TB) leukemia
MDA-MB-435 = system: MDA-MB-435
OVCAR-4 ovarian = system: OVCAR-4 ovarian
SNB-19 CNS = system: SNB-19 CNS
SW-620 colon = system: SW-620 colon
T-47D breast = system: T-47D breast
UACC-257 melanoma = system: UACC-257 melanoma

| SMILES | TGI (A549 NSCLC) | TGI (ACHN renal) | TGI (HCC-2998 colon) | TGI (HL-60(TB) leukemia) | TGI (MDA-MB-435) | TGI (OVCAR-4 ovarian) | TGI (SNB-19 CNS) | TGI (SW-620 colon) | TGI (T-47D breast) | TGI (UACC-257 melanoma) |
| --- | --- | --- | --- | --- | --- | --- | --- | --- | --- | --- |
| O=C(O)C(Cc1ccccc1)N1C(=O)c2ccccc2C1=O (centres undefined) | > 100 µM | > 100 µM | > 100 µM | 10.8 µM | > 100 µM | > 100 µM | > 100 µM | 84.9 µM | > 100 µM | > 100 µM |
| N=C(N)C(N=Nc1ccccc1)C(=N)N (centres undefined) | > 100 µM | > 100 µM | 32.9 µM | 54.2 µM | 42.7 µM | > 100 µM | > 100 µM | > 100 µM | > 100 µM | > 100 µM |
| COc1nc(C#CCCCC#N)nc(OC)n1 | 31.9 µM | 21.8 µM | – | 71.6 µM | 27.7 µM | 17.9 µM | > 100 µM | 32.5 µM | > 100 µM | 45.2 µM |
| O=C1CC(n2cccc2)c2cc(Br)sc21 (centres undefined) | > 100 µM | > 100 µM | – | > 100 µM | > 100 µM | > 100 µM | > 100 µM | > 100 µM | > 100 µM | > 100 µM |
| CC(=O)OCCC[C@@H]1C(=C(C)C)CCC2[C@@]1(C)CC[C@@]1(C)C[C@](C)(CCC=C(C)C)CC[C@]21C (some centres undefined) | > 100 µM | > 100 µM | > 100 µM | > 100 µM | > 100 µM | > 100 µM | > 100 µM | > 100 µM | > 100 µM | > 100 µM |
| CC1=CC[C@@]2(C)[C@@H]([C@@H]1C)[C@H]1CC[C@@H]3[C@@]4(C)CC[C@H](O)C(C)(C)[C@@H]4CC[C@@]3(C)[C@]1(C)C[C@@H]2O | > 100 µM | 36 µM | 37.9 µM | > 100 µM | 70.2 µM | > 82.2 µM | > 66.4 µM | 98.6 µM | > 74.9 µM | 34.8 µM |
| C=CCOCCCC(=O)C(=[N+]=[N-])C(=O)OC | > 100 µM | > 100 µM | > 100 µM | > 100 µM | – | > 100 µM | > 100 µM | > 100 µM | – | > 100 µM |
| OC(c1ccc(-c2ccccc2)cc1)(c1ccc(-c2ccccc2)cc1)c1ccc(-c2ccccc2)cc1 | > 100 µM | > 100 µM | – | – | > 100 µM | > 100 µM | > 100 µM | – | > 100 µM | > 100 µM |
| OC1C=C2C3CN(Cc4cc5c(cc43)OCO5)[C@H]2C[C@@H]1O (some centres undefined) | > 100 µM | 33.1 µM | – | 19.3 µM | 24.7 µM | 25.9 µM | 76.1 µM | > 100 µM | 6.54 µM | 9.29 µM |
| O=C1CS(=O)(=O)C(c2cccc(Oc3ccccc3)c2)N1c1cccc(Cl)c1Cl (centres undefined) | > 100 µM | 43.6 µM | – | 82.9 µM | 48.8 µM | 78.9 µM | > 100 µM | > 100 µM | > 100 µM | 51.2 µM |
| O=C(NN1C(=O)/C(=C/c2ccc(Cl)cc2)N=C1c1ccccc1)c1c(Cl)c(Cl)c(Cl)c(Cl)c1-c1nc2ccccc2[nH]1 | > 100 µM | 75.3 µM | 31.8 µM | 50.5 µM | 11.6 µM | – | > 100 µM | > 100 µM | 9.72 µM | – |
| O=C1c2ccccc2-c2ccc(O)cc21 | 88 µM | 33.2 µM | – | 75.4 µM | 59.6 µM | 44.2 µM | 48.7 µM | > 100 µM | 44.8 µM | 49.1 µM |
| O=C1CCC(NC(=O)Cc2ccc(O)cc2)C(=O)N1 (centres undefined) | > 2500 µM | > 2500 µM | – | – | – | > 2500 µM | > 2500 µM | > 2500 µM | – | > 2500 µM |
| CN(C)CCNc1c([N+](=O)[O-])cc2c3c(cccc13)C(=O)N(CCN(C)C)C2=O | – | – | 2.72 µM | 5.53 µM | – | 5.84 µM | 8.33 µM | 5.59 µM | – | 4.71 µM |
| N#CCc1[nH]nc2nc(SCc3ccccc3)nc(N3CCCCC3)c12 | 34.5 µM | 41.5 µM | 31.9 µM | 43.6 µM | 35 µM | 36.4 µM | 34.8 µM | 35 µM | 39.1 µM | 35.7 µM |
| CCN(CC)/C(=C\Cl)Nc1ccccn1 | > 100 µM | > 100 µM | > 100 µM | > 100 µM | – | > 100 µM | > 100 µM | > 100 µM | – | > 100 µM |
| S=C(NCCCCCCNC(=S)Nc1c2ccccc2nc2ccccc12)Nc1c2ccccc2nc2ccccc12 | > 100 µM | – | > 100 µM | > 100 µM | – | > 100 µM | > 100 µM | > 100 µM | – | > 100 µM |
| Cc1cc(C)n(C(=O)C(C)Sc2nnc(SC(C)C(=O)n3nc(C)cc3C)s2)n1 (centres undefined) | > 100 µM | > 100 µM | > 100 µM | > 100 µM | > 100 µM | > 100 µM | > 100 µM | > 100 µM | – | > 100 µM |
